Results from ChEMBL document CHEMBL3864191 (ACS Med Chem Lett, 2016).
Several values for one entry are separate records, joined by “and”; a condition that tells them apart may be missing. Equal entries are not always repeated. Activity calls are given as the source filed them. No cut-off for these calls is given here.

Experiments:
[1] = Cytotoxicity against human melanoma cells assessed as cell growth inhibition after 48 hrs by SRB assay; format: functional
[2] = Cytotoxicity against human breast cancer cells assessed as cell growth inhibition after 48 hrs by SRB assay; format: functional; details: Cancer cell lines
HOP-92 = test: Cytotoxicity against human HOP92 cells assessed as cell growth inhibition after 48 hrs by SRB assay; format: functional, cell-based
[3] = Cytotoxicity against mouse CT26 cells assessed as reduction in cell viability after 72 hrs by MTT assay; format: functional, cell-based
U-251 = test: Cytotoxicity against human U251 cells assessed as cell growth inhibition after 48 hrs by SRB assay; format: functional, cell-based
RXF 393 = test: Cytotoxicity against human RXF393 cells assessed as cell growth inhibition after 48 hrs by SRB assay; format: functional, cell-based
[4] = Cytotoxicity against human renal cancer cells assessed as cell growth inhibition after 48 hrs by SRB assay; format: functional; details: Cancer cell lines
[5] = Cytotoxicity against human CNS cancer cells assessed as cell growth inhibition after 48 hrs by SRB assay; format: functional; details: Cancer cell lines
[6] = Cytotoxicity against human DU145 cells assessed as reduction in cell viability after 72 hrs by MTT assay; format: functional, cell-based, DU-145
[7] = Cytotoxicity against human non-small cell lung cancer cells assessed as cell growth inhibition after 48 hrs by SRB assay; format: functional; details: Cancer cell lines
[8] = Cytotoxicity against human ovarian cancer cells assessed as cell growth inhibition after 48 hrs by SRB assay; format: functional; details: Cancer cell lines
NCI60 = test: Cytotoxicity against human NCI60 cells assessed as cell growth inhibition up to 10 uM after 48 hrs by SRB assay; format: functional, cell-based
cells [9] = details: Homo sapiens, HCT-116, 72 h
Description: Cytotoxicity against human HCT116 cells assessed as reduction in cell viability after 72 hrs by MTT assay

[10] = Cytotoxicity against human colon cancer cells assessed as cell growth inhibition after 48 hrs by SRB assay; format: functional; details: Cancer cell lines
cells [11] = details: Homo sapiens, MCF7, 72 h
Description: Cytotoxicity against human MCF7 cells assessed as reduction in cell viability after 72 hrs by MTT assay

[12] = target: Induced myeloid leukemia cell differentiation protein Mcl-1 (Homo sapiens, UniProt Q07820); test: Inhibition of FAM-Bid binding to human MCL1 expressed in Escherichia coli BL21 after 30 mins by fluorescence polarization assay
Sequence of Induced myeloid leukemia cell differentiation protein Mcl-1 (Q07820 whole entry): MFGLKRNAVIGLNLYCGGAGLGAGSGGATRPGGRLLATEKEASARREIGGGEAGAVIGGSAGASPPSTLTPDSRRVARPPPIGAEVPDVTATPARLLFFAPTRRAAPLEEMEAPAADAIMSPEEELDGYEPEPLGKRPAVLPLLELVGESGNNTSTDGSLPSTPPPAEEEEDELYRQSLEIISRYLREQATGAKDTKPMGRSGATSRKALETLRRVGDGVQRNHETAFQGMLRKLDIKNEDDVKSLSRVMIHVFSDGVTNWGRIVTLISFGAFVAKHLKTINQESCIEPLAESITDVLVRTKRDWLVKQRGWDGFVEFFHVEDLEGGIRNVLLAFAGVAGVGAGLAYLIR

[13] = target: Apoptosis regulator Bcl-2 (Homo sapiens, UniProt P10415); test: Inhibition of FAM-Bid binding to human BCL2 expressed in Escherichia coli BL21 after 30 mins by fluorescence polarization assay
Sequence of Apoptosis regulator Bcl-2 (P10415 whole entry): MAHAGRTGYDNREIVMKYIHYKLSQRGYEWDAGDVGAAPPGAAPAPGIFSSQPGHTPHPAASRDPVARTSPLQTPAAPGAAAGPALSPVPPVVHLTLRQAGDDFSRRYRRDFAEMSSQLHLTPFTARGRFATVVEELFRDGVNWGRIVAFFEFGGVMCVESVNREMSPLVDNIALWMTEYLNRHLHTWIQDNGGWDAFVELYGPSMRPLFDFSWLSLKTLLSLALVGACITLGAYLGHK

[14] = Cytotoxicity against human leukemia cells assessed as cell growth inhibition after 48 hrs by SRB assay; format: functional
[15] = Cytotoxicity against HEK293T cells assessed as reduction in cell viability at 0.33 to 100 uM after 72 hrs by MTT assay; format: toxicity, cell-based; details: human, hek-293t
SNB-19 = test: Cytotoxicity against human SNB19 cells assessed as cell growth inhibition after 48 hrs by SRB assay; format: functional, cell-based
[16] = Cytotoxicity against African green monkey Vero cells assessed as reduction in cell viability at 0.33 to 100 uM after 72 hrs by MTT assay; format: toxicity, cell-based; details: chlorocebus sabaeus
[17] = Cytotoxicity against human prostate cancer cells assessed as cell growth inhibition after 48 hrs by SRB assay; format: functional; details: Cancer cell lines
[18] = Cytotoxicity against human NCI60 cells assessed as cell growth inhibition after 48 hrs by SRB assay; format: functional; details: NCI60, 48 h
CT26 = test: Potency index, ratio of (-)-gossypol IC50 to compound IC50 for mouse CT26 cells; format: functional
[19] = Chemical stability of compound in pH 1 to 10 Hcl solution after 3 hrs by HPLC analysis; format: physicochemical; details: buffer, pH 1, 3 h
MCF7 = test: Potency index, ratio of (-)-gossypol IC50 to compound IC50 for human MCF7 cells; format: functional
[20] = Stability in rat liver microsomes at 4.75 uM preincubated for 5 mins followed by NADPH addition after 60 mins by HPLC analysis; format: ADME; details: 1 h
[21] = Stability in human liver microsomes at 4.75 uM preincubated for 5 mins followed by NADPH addition after 60 mins by HPLC analysis; format: ADME; details: 1 h

Row | Compound | GI50 [1] [nM] | GI50 [2] [nM] | IC50 ([3]; Mus musculus, CT26, 72 h) [nM] | GI50 [4] [nM] | GI50 [5] [nM] | IC50 ([6]; Homo sapiens, DU-145, 72 h) [nM] | GI50 [7] [nM] | GI50 [8] [nM] | IC50 (cells [9]) [nM] | GI50 [10] [nM] | IC50 (cells [11]) [nM] | IC50 [12] [nM] | Ki [12] [nM] | IC50 [13] [nM] | Ki [13] [nM] | GI50 [14] [nM] | Activity [15] | Activity [16] | GI50 [17] [nM] | GI50 [18] [nM] | also measured
1 | COC(=O)CCCCN/C=C1\C(=O)C(O)=C(C(C)C)c2cc(C)c(-c3c(C)cc4c(c3O)/C(=C/NCCCCC(=O)OC)C(=O)C(O)=C4C(C)C)c(O)c21 | 1420 | 1080 | 16600 | 1140 | 1270 | 7360 | 1050 | 1260 | 3380 | 1000 | 8220 | 740 | 139 | 483 | 182 | 810 | Non-Toxic | Non-Toxic | 1090 | – | growth inhibition (GI) (HOP-92): Active; growth inhibition (GI) (U-251): Active; growth inhibition (GI) (RXF 393): Active; growth inhibition (GI) (NCI60): Active; growth inhibition (GI) (SNB-19): Active
2 | CC1(C)CCC(CN2CCN(c3ccc(C(=O)NS(=O)(=O)c4ccc(NCC5CCOCC5)c([N+](=O)[O-])c4)c(Oc4cnc5[nH]ccc5c4)c3)CC2)=C(c2ccc(Cl)cc2)C1 [VENETOCLAX] | 1750 | 2770 | – | 2600 | 3350 | – | 2700 | 3330 | – | 2850 | – | > 4000 | > 780 | – | – | 2110 | – | – | 3510 | 200 to 5100 | –
3 | Cc1cc2c(c(O)c1-c1c(C)cc3c(c1O)/C(=C/NCCCCCCC(=O)O)C(=O)C(O)=C3C(C)C)/C(=C/NCCCCCCC(=O)O)C(=O)C(O)=C2C(C)C | – | – | 2080 | – | – | 19100 | – | – | 17300 | – | 11500 | – | – | – | – | – | Non-Toxic | Non-Toxic | – | – | Ratio IC50 (CT26): 11
4 | COC(=O)CCCN/C=C1\C(=O)C(O)=C(C(C)C)c2cc(C)c(-c3c(C)cc4c(c3O)/C(=C/NCCCC(=O)OC)C(=O)C(O)=C4C(C)C)c(O)c21 (stereo in doubt; 16) | 990 | 740 | 8390 | 820 | 600 | 2390 | 480 | 590 | 2750 | 460 | 4390 | 947 | 180 | 825 | 341 | 560 | Non-Toxic | Non-Toxic | 410 | 100 to 1700 | Stability [19]: Stable; Ratio IC50 (MCF7): 12; Stability [20]: Stable; Stability [21]: Stable
5 | Cc1cc2c(C(C)C)c(O)c(O)c(C=O)c2c(O)c1-c1c(C)cc2c(C(C)C)c(O)c(O)c(C=O)c2c1O [GOSSYPOL] | 3220 | – | – | 3160 | 2970 | – | 2850 | 3500 | 3590 | 3190 | 54000 | 856 | 162 | – | – | 2470 | Toxic | Toxic | – | 800 to 5100 | IC50 ([3]; ct26): 23200 nM and 61900 nM and 46800 nM; IC50 ([6]; du-145): 7970 nM and 19200 nM and 7930 nM
